Test results as given in ChEMBL document CHEMBL4138146, “A Schmidt rearrangement-mediated synthesis of novel tetrahydro-benzo[1,4]diazepin-5-ones as potential anticancer and antiprotozoal agents” (Eur J Med Chem, 2017).

Key:
Format in all cases: functional
A498 [1] = assay: Growth inhibition of human A498 cells assessed as cell growth at 10^-6 M incubated for 48 hrs by sulforhodamine B assay relative to control; conditions: A498, 48 h, read-out: Activity
MDA-MB-435 = assay: Growth inhibition of human MDA-MB-435 cells assessed as cell growth at 10^-4 M incubated for 48 hrs by sulforhodamine B assay relative to control; conditions: MDA-MB-435, 48 h, read-out: Activity
OVCAR-3 = assay: Growth inhibition of human OVCAR3 cells assessed as cell growth at 10^-4 M incubated for 48 hrs by sulforhodamine B assay relative to control; conditions: OVCAR-3, 48 h, read-out: Activity
ACHN = assay: Growth inhibition of human ACHN cells assessed as cell growth at 10^-8 M incubated for 48 hrs by sulforhodamine B assay relative to control; conditions: read-out: Activity
HCT-15 = assay: Growth inhibition of human HCT15 cells assessed as cell growth at 10^-6 M incubated for 48 hrs by sulforhodamine B assay relative to control; conditions: HCT-15, 48 h, read-out: Activity
OVCAR-5 [2] = assay: Growth inhibition of human OVCAR5 cells assessed as cell growth at 10^-5 M incubated for 48 hrs by sulforhodamine B assay relative to control; conditions: OVCAR-5, 48 h, read-out: Activity
TK-10 = assay: Growth inhibition of human TK10 cells assessed as cell growth at 10^-7 M incubated for 48 hrs by sulforhodamine B assay relative to control; conditions: TK-10, 48 h, read-out: Activity
NCI-H23 = assay: Growth inhibition of human NCI-H23 cells assessed as cell growth at 10^-6 M incubated for 48 hrs by sulforhodamine B assay relative to control; conditions: NCI-H23, 48 h, read-out: Activity
SK-MEL-28 = assay: Growth inhibition of human SK-MEL-28 cells assessed as cell growth at 10^-8 M incubated for 48 hrs by sulforhodamine B assay relative to control; conditions: SK-MEL-28, 48 h, read-out: Activity
NCI-H226 [3] = assay: Growth inhibition of human NCI-H226 cells assessed as cell growth at 10^-7 M incubated for 48 hrs by sulforhodamine B assay relative to control; conditions: NCI-H226, 48 h, read-out: Activity
RPMI-8226 = assay: Growth inhibition of human RPMI8226 cells assessed as cell growth at 10^-6 M incubated for 48 hrs by sulforhodamine B assay relative to control; conditions: RPMI-8226, 48 h, read-out: Activity
A498 [4] = assay: Growth inhibition of human A498 cells assessed as cell growth at 10^-7 M incubated for 48 hrs by sulforhodamine B assay relative to control; conditions: A498, 48 h, read-out: Activity
OVCAR-5 [5] = assay: Growth inhibition of human OVCAR5 cells assessed as cell growth at 10^-7 M incubated for 48 hrs by sulforhodamine B assay relative to control; conditions: OVCAR-5, 48 h, read-out: Activity
PC-3 = assay: Growth inhibition of human PC3 cells assessed as cell growth at 10^-6 M incubated for 48 hrs by sulforhodamine B assay relative to control; conditions: PC-3, 48 h, read-out: Activity
SF-295 = assay: Growth inhibition of human SF295 cells assessed as cell growth at 10^-6 M incubated for 48 hrs by sulforhodamine B assay relative to control; conditions: SF-295, 48 h, read-out: Activity
NCI-H226 [6] = assay: Growth inhibition of human NCI-H226 cells assessed as cell growth at 10^-5 M incubated for 48 hrs by sulforhodamine B assay relative to control; conditions: NCI-H226, 48 h, read-out: Activity
Hs-578T = assay: Growth inhibition of human Hs 578T cells assessed as cell growth at 10^-7 M incubated for 48 hrs by sulforhodamine B assay relative to control; conditions: read-out: Activity
HOP-92 = assay: Growth inhibition of human HOP92 cells assessed as cell growth at 10^-4 M incubated for 48 hrs by sulforhodamine B assay relative to control; conditions: HOP-92, 48 h, read-out: Activity
MOLT-4 = assay: Growth inhibition of human MOLT4 cells assessed as cell growth at 10^-7 M incubated for 48 hrs by sulforhodamine B assay relative to control; conditions: MOLT-4, 48 h, read-out: Activity
SK-MEL-2 = assay: Growth inhibition of human SK-MEL-2 cells assessed as cell growth at 10^-6 M incubated for 48 hrs by sulforhodamine B assay relative to control; conditions: SK-MEL-2, 48 h, read-out: Activity
A498 [7] = assay: Growth inhibition of human A498 cells assessed as cell growth at 10^-4 M incubated for 48 hrs by sulforhodamine B assay relative to control; conditions: A498, 48 h, read-out: Activity
M14 = assay: Growth inhibition of human M14 cells assessed as cell growth at 10^-7 M incubated for 48 hrs by sulforhodamine B assay relative to control; conditions: M14, 48 h, read-out: Activity
SNB-75 = assay: Growth inhibition of human SNB75 cells assessed as cell growth at 10^-6 M incubated for 48 hrs by sulforhodamine B assay relative to control; conditions: SNB-75, 48 h, read-out: Activity
NCI-H522 [8] = assay: Growth inhibition of human NCI-H522 cells assessed as cell growth at 10^-8 M incubated for 48 hrs by sulforhodamine B assay relative to control; conditions: NCI-H522, 48 h, read-out: Activity
U-251 = assay: Growth inhibition of human U251 cells assessed as cell growth at 10^-5 M incubated for 48 hrs by sulforhodamine B assay relative to control; conditions: U-251, 48 h, read-out: Activity
NCI-H522 [9] = assay: Growth inhibition of human NCI-H522 cells assessed as cell growth at 10^-5 M incubated for 48 hrs by sulforhodamine B assay relative to control; conditions: NCI-H522, 48 h, read-out: Activity
MCF7 = assay: Growth inhibition of human MCF7 cells assessed as cell growth at 10^-8 M incubated for 48 hrs by sulforhodamine B assay relative to control; conditions: MCF7, 48 h, read-out: Activity
RXF 393 = assay: Growth inhibition of human RXF393 cells assessed as cell growth at 10^-8 M incubated for 48 hrs by sulforhodamine B assay relative to control; conditions: RXF 393, 48 h, read-out: Activity
T47D = assay: Growth inhibition of human T47D cells assessed as cell growth at 10^-5 M incubated for 48 hrs by sulforhodamine B assay relative to control; conditions: read-out: Activity
HCC 2998 = assay: Growth inhibition of human HCC2998 cells assessed as cell growth at 10^-7 M incubated for 48 hrs by sulforhodamine B assay relative to control; conditions: HCC 2998, 48 h, read-out: Activity
MDA-MB-468 = assay: Growth inhibition of human MDA-MB-468 cells assessed as cell growth at 10^-5 M incubated for 48 hrs by sulforhodamine B assay relative to control; conditions: MDA-MB-468, 48 h, read-out: Activity
IGROV-1 = assay: Growth inhibition of human IGROV1 cells assessed as cell growth at 10^-7 M incubated for 48 hrs by sulforhodamine B assay relative to control; conditions: IGROV-1, 48 h, read-out: Activity
UO-31 = assay: Growth inhibition of human UO31 cells assessed as cell growth at 10^-4 M incubated for 48 hrs by sulforhodamine B assay relative to control; conditions: UO-31, 48 h, read-out: Activity

CCCCOc1nc2ccccc2cc1C1CNC(=O)c2ccccc2N1 (stereo not drawn)
growth at 1 µM (A498 [1]): 42% | growth at 100 µM (MDA-MB-435): -74% | growth at 100 µM (OVCAR-3): -92% | growth at 0.01 µM (ACHN): 103% | growth at 1 µM (HCT-15): 69% | growth at 10 µM (OVCAR-5 [2]): 38% | growth at 0.1 µM (TK-10): 83% | growth at 1 µM (NCI-H23): 91% | growth at 0.01 µM (SK-MEL-28): 103% | growth at 0.1 µM (NCI-H226 [3]): 79% | growth at 1 µM (RPMI-8226): 84% | growth at 0.1 µM (A498 [4]): 62% | growth at 0.1 µM (OVCAR-5 [5]): 102% | growth at 1 µM (PC-3): 89% | growth at 1 µM (SF-295): 59% | growth at 10 µM (NCI-H226 [6]): 7% | growth at 0.1 µM (Hs-578T): 97% | growth at 100 µM (HOP-92): -38% | growth at 0.1 µM (MOLT-4): 94% | growth at 1 µM (SK-MEL-2): 86% | growth at 100 µM (A498 [7]): -38% | growth at 0.1 µM (M14): 91% | growth at 1 µM (SNB-75): 63% | growth at 0.01 µM (NCI-H522 [8]): 90% | growth at 10 µM (U-251): 12% | growth at 10 µM (NCI-H522 [9]): 25% | growth at 0.01 µM (MCF7): 88% | growth at 0.01 µM (RXF 393): 100% | growth at 10 µM (T47D): 36% | growth at 0.1 µM (HCC 2998): 93% | growth at 10 µM (MDA-MB-468): -10% | growth at 0.1 µM (IGROV-1): 92% | growth at 100 µM (UO-31): -67%
